This passage reports DC50 results from patent publication US20250302815A1, “PROTEIN TYROSINE PHOSPHATASE TARGETING LIGANDS” (CALICO LIFE SCIENCES LLC, priority 2021, published 2025).

Test [1] deals with T1, PTPN2 (HiBIT-PTPN2 in 293T.109 cells) (Homo sapiens, UniProt P17706).
T1 construct: expressed in transfected cells; host or cells: 293T.109 (293T WT from ATCC)
T1 sequence (P17706 1-415): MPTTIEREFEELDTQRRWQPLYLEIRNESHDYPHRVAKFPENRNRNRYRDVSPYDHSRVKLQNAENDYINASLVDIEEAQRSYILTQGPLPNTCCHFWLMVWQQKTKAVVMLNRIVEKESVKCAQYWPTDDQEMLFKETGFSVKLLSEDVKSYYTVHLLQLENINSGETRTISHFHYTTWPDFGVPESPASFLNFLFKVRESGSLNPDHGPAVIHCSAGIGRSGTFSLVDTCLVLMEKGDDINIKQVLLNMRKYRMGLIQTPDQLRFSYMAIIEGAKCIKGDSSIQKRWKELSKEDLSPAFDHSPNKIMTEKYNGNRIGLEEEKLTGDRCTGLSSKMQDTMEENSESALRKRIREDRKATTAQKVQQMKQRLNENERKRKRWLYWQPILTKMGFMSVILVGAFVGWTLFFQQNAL
Put plainly: HiBiT Degradation 293T.109 PTPN2 (Nano-Glo HiBiT Lytic Assay). Format: cell-based. The note with it: 24.0 hours. In a few lines: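 293T.109 cells with ectopic N-terminal HiBiT-tagged PTPN2 (5000/well) exposed to compounds for 24 h at 37 °C, 5% CO2; 11-point half-log titration from 10 μM top, duplicates. Remaining HiBiT-PTPN2 read as luminescence with Nano-Glo HiBiT lytic reagent, normalised to untreated cells (0%) and reagent-free wells.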

A further test has as its target T2, PTPN2 (B16F10.4 cells) (Mus musculus, UniProt Q06180).
T2 construct: HiBiT; host or cells: B16F10.4
T2 sequence (Q06180 1-406): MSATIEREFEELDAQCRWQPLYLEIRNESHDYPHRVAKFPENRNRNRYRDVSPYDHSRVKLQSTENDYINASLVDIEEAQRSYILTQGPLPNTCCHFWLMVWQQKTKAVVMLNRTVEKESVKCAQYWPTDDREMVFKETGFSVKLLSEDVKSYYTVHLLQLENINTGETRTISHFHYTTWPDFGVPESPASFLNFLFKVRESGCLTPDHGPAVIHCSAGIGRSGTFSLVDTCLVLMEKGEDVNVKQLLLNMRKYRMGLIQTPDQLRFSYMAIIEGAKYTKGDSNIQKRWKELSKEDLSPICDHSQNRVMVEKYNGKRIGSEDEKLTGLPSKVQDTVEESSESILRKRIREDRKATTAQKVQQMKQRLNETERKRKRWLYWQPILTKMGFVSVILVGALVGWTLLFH
The test can be described thus: HiBiT Degradation B16F10.4 PTPN2. Format: cell-based. To be noted: 24.0 hours.

On to `CC1(C)C[C@@H](Nc2cccc(-c3sc(C(=O)O)c(OCC(=O)O)c3Cl)c2)CCN1S(=O)(=O)Cc1cccc(NC(=O)N2CCC(c3ccc4c5c(cccc35)C(=O)N4[C@@H]3CCC(=O)NC3=O)CC2)c1` (single isomer, unassigned) [Example 187a], for which the DC50 (in test [1]; on PTPN2 (B16F10.4 cells)) was below 50 nM in each case.
As for `Cn1c(=O)n(C2CCC(=O)NC2=O)c2ccc(C3CCCN(C(=O)Nc4cccc(CS(=O)(=O)N5CC[C@H](Nc6cccc(-c7sc(C(=O)O)c(OCC(=O)O)c7Cl)c6)CC5(C)C)c4)C3)cc21` (stereo partly drawn) [Example 203, 3-(carboxymethoxy)-4-chloro-5-[3-[[(4S)-1-[[3-[[3-[1-(2,6-dioxo-3-piperidyl)-3-methyl-2-oxo-benzimidazol-5-yl]piperidine-1-carbonyl]amino]phenyl]methylsulfonyl]-2,2-dimethyl-4-piperidyl]amino]phenyl]thiophene-2-carboxylic acid], the DC50 lay within 200 to 1000 nM in test [1] and 50 to 200 nM on PTPN2 (B16F10.4 cells).
As to `O=C(O)COc1c(C(=O)O)sc(-c2cccc(NC3CCN(S(=O)(=O)Cc4cccc(NC(=O)CCN5CCC(Nc6cccc7c6CN(C6CCC(=O)NC6=O)C7=O)CC5)c4)CC3)c2)c1Cl` (centres unmarked) [Example 50, 3-(carboxymethoxy)-4-chloro-5-[3-[[1-[[3-[3-[4-[[2-(2,6-dioxo-3-piperidyl)-1-oxo-isoindolin-4-yl]amino]-1-piperidyl]propanoylamino]phenyl]methylsulfonyl]-4-piperidyl]amino]phenyl]thiophene-2-carboxylic acid], the DC50 in test [1] was below 50 nM; on PTPN2 (B16F10.4 cells) it was at least 1000 nM.
Regarding `Cn1c(=O)n(C2CCC(=O)NC2=O)c2ccc(C3CCN(C(=O)Nc4cccc(CS(=O)(=O)N5CCC(Nc6cccc(-c7sc(C(=O)O)c(OCC(=O)O)c7Cl)c6)CC5)c4F)CC3)cc21` (centres unmarked) [Example 99, 3-(carboxymethoxy)-4-chloro-5-[3-[[1-[[3-[[4-[1-(2,6-dioxo-3-piperidyl)-3-methyl-2-oxo-benzimidazol-5-yl]piperidine-1-carbonyl]amino]-2-fluoro-phenyl]methylsulfonyl]-4-piperidyl]amino]phenyl]thiophene-2-carboxylic acid], the DC50 in test [1] was 50 to 200 nM; at PTPN2 (B16F10.4 cells) it was below 50 nM.
On the same counts, the results for `CN(c1cccc(-c2sc(C(=O)O)c(OCC(=O)O)c2Cl)c1)C1CCN(S(=O)(=O)Cc2cccc(NC(=O)CCn3cc(CNc4cccc5c4C(=O)N(C4CCC(=O)NC4=O)C5=O)nn3)c2)CC1` (centres unmarked) [Example 17, 3-(carboxymethoxy)-4-chloro-5-(3-((1-((3-(3-(4-(((2-(2,6-dioxopiperidin-3-yl)-1,3-dioxoisoindolin-4-yl)amino)methyl)-1H-1,2,3-triazol-1-yl)propanamido)benzyl)sulfonyl)piperidin-4-yl)(methyl)amino)phenyl)thiophene-2-carboxylic acid] are at least 1000 nM and at least 1000 nM.
As to `Cn1c(=O)n(C2CCC(=O)NC2=O)c2ccc(C3CCN(C(=O)Nc4cccc(CS(=O)(=O)N5CC[C@@H](Nc6cccc(-c7sc(C(=O)O)c(OCC(=O)O)c7Cl)c6F)CC5(C)C)c4)CC3)cc21` (stereo partly drawn) [Example 135, 3-(carboxymethoxy)-4-chloro-5-[3-[[(4R)-1-[[3-[[4-[1-(2,6-dioxo-3-piperidyl)-3-methyl-2-oxo-benzimidazol-5-yl]piperidine-1-carbonyl]amino]phenyl]methylsulfonyl]-2,2-dimethyl-4-piperidyl]amino]-2-fluoro-phenyl]thiophene-2-carboxylic acid], the DC50 in test [1] is 50 to 200 nM; on PTPN2 (B16F10.4 cells), below 50 nM.
As to `CC1(C)C[C@@H](Nc2cccc(-c3sc(C(=O)O)c(OCC(=O)O)c3Cl)c2)CCN1S(=O)(=O)Cc1cccc(NC(=O)C2CCN(C(=O)CCc3cccc4c3CN(C3CCC(=O)NC3=O)C4=O)CC2)c1` (stereo partly drawn) [Example 61, 3-(carboxymethoxy)-4-chloro-5-(3-(((4S)-1-((3-(1-(3-(2-(2,6-dioxopiperidin-3-yl)-1-oxoisoindolin-4-yl)propanoyl)piperidine-4-carboxamido)benzyl)sulfonyl)-2,2-dimethylpiperidin-4-yl)amino)phenyl)thiophene-2-carboxylic acid], the DC50 (in test [1]; at PTPN2 (B16F10.4 cells)) was 200 to 1000 nM in each case.
For the compound `Cn1c(=O)n(C2CCC(=O)NC2=O)c2ccc(C3CCN(C(=O)Nc4cc(CS(=O)(=O)N5CC[C@H](Nc6cccc(-c7sc(C(=O)O)c(OCC(=O)O)c7Cl)c6)CC5(C)C)ccc4F)CC3)cc21` (stereo partly drawn) [Example 119, 3-(carboxymethoxy)-4-chloro-5-[3-[[(4S)-1-[[3-[[4-[1-(2,6-dioxo-3-piperidyl)-3-methyl-2-oxo-benzimidazol-5-yl]piperidine-1-carbonyl]amino]-4-fluoro-phenyl]methylsulfonyl]-2,2-dimethyl-4-piperidyl]amino]phenyl]thiophene-2-carboxylic acid], the half-maximal degradation concentration (DC50) (in test [1]; on PTPN2 (B16F10.4 cells)) was 50 to 200 nM in each case.
In the case of `CC1(C)C[C@@H](Nc2cccc(-c3sc(C(=O)O)c(OCC(=O)O)c3Cl)c2)CCN1S(=O)(=O)Cc1cccc(NC(=O)C2CCN(C(=O)CNc3cccc4c3CN(C3CCC(=O)NC3=O)C4=O)CC2)c1` (stereo partly drawn) [Example 48, 3-(carboxymethoxy)-4-chloro-5-(3-(((4S)-1-((3-(1-((2-(2,6-dioxopiperidin-3-yl)-1-oxoisoindolin-4-yl)glycyl)piperidine-4-carboxamido)benzyl)sulfonyl)-2,2-dimethylpiperidin-4-yl)amino)phenyl)thiophene-2-carboxylic acid], the DC50 was below 50 nM in test [1] and 200 to 1000 nM at PTPN2 (B16F10.4 cells).
Turning to `Cn1c(=O)n(C2CCC(=O)NC2=O)c2ccc(C3CCN(C(=O)Nc4cccc(CS(=O)(=O)N5CC[C@@H](Oc6cccc(-c7sc(C(=O)O)c(OCC(=O)O)c7Cl)c6)CC5(C)C)c4)CC3)cc21` (stereo partly drawn) [Example 226, 3-(carboxymethoxy)-4-chloro-5-(3-(((4R)-1-((3-(4-(1-(2,6-dioxopiperidin-3-yl)-3-methyl-2-oxo-2,3-dihydro-1H-benzo[d]imidazol-5-yl)piperidine-1-carboxamido)benzyl)sulfonyl)-2,2-dimethylpiperidin-4-yl)oxy)phenyl)thiophene-2-carboxylic acid], the half-maximal degradation concentration (DC50) in test [1] fell in the range of 200 to 1000 nM; on PTPN2 (B16F10.4 cells) it was 50 to 200 nM.
`O=C(O)COc1c(C(=O)O)sc(-c2cccc(NC3CCN(S(=O)(=O)Cc4cccc(NC(=O)CCCCCNC(=O)CNc5cccc6c5CN(C5CCC(=O)NC5=O)C6=O)c4)CC3)c2)c1Cl` (centres unmarked) [Example 21, 3-(carboxymethoxy)-4-chloro-5-(3-((1-((3-(6-(2-((2-(2,6-dioxopiperidin-3-yl)-1-oxoisoindolin-4-yl)amino)acetamido)hexanamido)benzyl)sulfonyl)piperidin-4-yl)amino)phenyl)thiophene-2-carboxylic acid]: the DC50 in test [1] is 200 to 1000 nM; at PTPN2 (B16F10.4 cells), at least 1000 nM.
As to `CC1(C)C[C@@H](Nc2cccc(-c3sc(C(=O)O)c(OCC(=O)O)c3Cl)c2)CCN1S(=O)(=O)Cc1cccc(NC(=O)C2C[C@@H]3CN(C(=O)CNc4cccc5c4CN(C4CCC(=O)NC4=O)C5=O)C[C@@H]3C2)c1` (stereo partly drawn) [Example 97, 5-[3-[[(4S)-1-[[3-[[(3aR,6aS)-2-[2-[[2-(2,6-dioxo-3-piperidyl)-1-oxo-isoindolin-4-yl]amino]acetyl]-3,3a,4,5,6,6a-hexahydro-1H-cyclopenta[c]pyrrole-S-carbonyl]amino]phenyl]methylsulfonyl]-2,2-dimethyl-4-piperidyl]amino]phenyl]-3-(carboxymethoxy)-4-chloro-thiophene-2-carboxylic acid], the DC50 in test [1] was 200 to 1000 nM; on PTPN2 (B16F10.4 cells), at least 1000 nM.
As to `CC1(C)C[C@@H](Nc2cccc(-c3sc(C(=O)O)c(OCC(=O)O)c3Cl)c2)CCN1S(=O)(=O)Cc1cccc(NC(=O)CCOCCOCCOCCCc2cccc3c2C(=O)N(C2CCC(=O)NC2=O)C3=O)c1` (stereo partly drawn) [Example 35, 3-(carboxymethoxy)-4-chloro-5-[3-[[(4S)-1-[[3-[3-[2-[2-[3-[2-(2,6-dioxo-3-piperidyl)-1,3-dioxo-isoindolin-4-yl]propoxy]ethoxy]ethoxy]propanoylamino]phenyl]methylsulfonyl]-2,2-dimethyl-4-piperidyl]amino]phenyl]thiophene-2-carboxylic acid], the DC50 (in test [1]; on PTPN2 (B16F10.4 cells)) was 200 to 1000 nM each time.
